# In ChEMBL document CHEMBL2202987, “Structure based medicinal chemistry approach to develop 4-methyl-7-deazaadenine carbocyclic nucleosides as anti-HCV agent” (Bioorg Med Chem Lett, 2012):
# Key:
# [1] = Cytotoxicity against human HuH7 cells by tetrazolium dye method; format: cell-based, Huh-7
# Hepatitis C virus = assay: Antiviral activity against HCV infected in HuH7 cells after 3 days by luciferase reporter gene assay; format: functional, organism-based, Hepacivirus hominis; conditions: Huh-7, 72 h
SMILES,EC50 (Hepatitis C virus) [µM],CC50 [1] [µM]
Cc1ncnc2c1c(F)cn2[C@@H]1C=C(CO)[C@@H](O)[C@H]1O,> 100,> 100
Cc1ncnc2c1c(Cl)cn2[C@@H]1C=C(CO)[C@@H](O)[C@H]1O,41.7,> 100
Cc1ncnc2c1c(I)cn2[C@@H]1C=C(CO)[C@@H](O)[C@H]1O,46.2,> 100
C=Cc1cn([C@@H]2C=C(CO)[C@@H](O)[C@H]2O)c2ncnc(C)c12,28,52.8
C#Cc1cn([C@@H]2C=C(CO)[C@@H](O)[C@H]2O)c2ncnc(C)c12,67.7,> 100

# Second part, led by results:
EC50 (Hepatitis C virus) [µM],SMILES,CC50 [1] [µM]
0.17,CCCCn1c(=O)c2cc(OC)ccc2c2cc(C(O)(C(F)(F)F)C(F)(F)F)c(OC)cc21,> 10
> 100,Cc1ncnc2c1ccn2[C@@H]1C=C(CO)[C@@H](O)[C@H]1O,> 100
37.3,Cc1ncnc2c1c(Br)cn2[C@@H]1C=C(CO)[C@@H](O)[C@H]1O,> 100
